Test results reported in BindingDB's records for doi:10.1016/0960-894X(95)00199-4 (1995).

target: T1, Thromboxane A2 receptor (Homo sapiens, UniProt P21731); assay: Compound was evaluated for the inhibition of platelet aggregation, assessed turbidimetrically in citreated human platelet rich plasma (PRP)
T1 sequence (P21731 whole entry): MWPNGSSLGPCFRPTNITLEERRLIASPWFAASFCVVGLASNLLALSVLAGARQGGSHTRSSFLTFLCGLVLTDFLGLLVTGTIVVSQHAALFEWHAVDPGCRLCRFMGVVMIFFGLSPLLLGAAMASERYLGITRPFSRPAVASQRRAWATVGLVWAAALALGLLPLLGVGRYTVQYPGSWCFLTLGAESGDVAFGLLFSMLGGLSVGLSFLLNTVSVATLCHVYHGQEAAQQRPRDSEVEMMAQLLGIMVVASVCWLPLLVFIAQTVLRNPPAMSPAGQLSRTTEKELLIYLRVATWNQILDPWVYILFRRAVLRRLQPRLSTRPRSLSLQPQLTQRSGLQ

IC50 | Compound
1900 nM | O=C(O)CC/C=C\C[C@@H]1[C@@H](CNS(=O)(=O)c2ccc(F)cc2)CC[C@H]1F
540 nM | O=C(O)CCC/C=C\C[C@H]1[C@H](F)CC[C@@H]1NS(=O)(=O)c1ccc(F)cc1
2000 nM | O=C(O)CCC/C=C\C[C@H]1[C@H](F)CC[C@@H]1NS(=O)(=O)C1=C2N=CC=CC2CC=C1 (stereo partly drawn)

target: not listed separately; assay: Compound was evaluated for the inhibition of platelet aggregation, assessed turbidimetrically in citreated human platelet rich plasma (PRP)

IC50 | Compound
2000 nM | O=C(O)COCCCCC1=CCC[C@@H]1NS(=O)(=O)c1ccccc1
620 nM | O=C(O)CCCCCCC1=CCC[C@@H]1NS(=O)(=O)c1ccc(F)cc1
200 nM | O=C(O)CCC/C=C\C[C@H]1[C@H](F)CC[C@@H]1NS(=O)(=O)c1ccc(F)cc1F
1700 nM | O=C(O)COCCCC[C@H]1[C@H](F)CC[C@@H]1NS(=O)(=O)c1ccccc1
4700 nM | O=C(O)CCCCC[C@@H]1[C@@H](CNS(=O)(=O)c2ccc(F)cc2)CC[C@H]1F
1800 nM | O=C(O)CCC/C=C\C[C@H]1[C@H](F)CC[C@@H]1NS(=O)(=O)c1ccccc1[N+](=O)[O-]
1900 nM | O=C(O)CC/C=C\CC1=CCC[C@@H]1NS(=O)(=O)c1ccc(Cl)c(Cl)c1
2200 nM | O=C(O)CC/C=C\CC1=CCC[C@@H]1NS(=O)(=O)c1ccccc1
1900 nM | Cc1ccc(S(=O)(=O)N[C@H]2CC[C@@H](F)[C@@H]2C/C=C\CCC(=O)O)cc1
2400 nM | O=C(O)CCCCCC[C@H]1[C@H](F)CC[C@@H]1NS(=O)(=O)c1ccc(F)cc1
70 nM | O=C(O)CCC/C=C\C[C@H]1[C@H](F)CC[C@@H]1NS(=O)(=O)c1ccc(Cl)cc1
1900 nM | O=C(O)CCC/C=C\CC1=CCC[C@@H]1NS(=O)(=O)c1ccc2ccccc2c1
1600 nM | O=C(O)CC/C=C/C[C@H]1[C@H](F)CC[C@@H]1NS(=O)(=O)c1ccc(F)cc1F
260 nM | Cc1ccc(S(=O)(=O)N[C@H]2CC[C@@H](F)[C@@H]2C/C=C\CCCC(=O)O)cc1
5500 nM | O=C(O)COCCCC[C@H]1[C@H](F)CC[C@@H]1NS(=O)(=O)c1ccccc1[N+](=O)[O-]
560 nM | O=C(O)CC/C=C\C[C@H]1[C@H](F)CC[C@@H]1NS(=O)(=O)c1ccccc1[N+](=O)[O-]
600 nM | O=C(O)CC/C=C\CC1=CCC[C@@H]1NS(=O)(=O)c1ccccc1[N+](=O)[O-]
20000 nM | O=C(O)CC/C=C\CC1=CCC[C@@H]1NS(=O)(=O)c1ccc(F)cc1F
1700 nM | O=C(O)CC/C=C\C[C@H]1[C@H](F)CC[C@@H]1NS(=O)(=O)c1ccc(Cl)c(Cl)c1
630 nM | O=C(O)CCC/C=C\C[C@H]1[C@H](F)CC[C@@H]1NS(=O)(=O)c1ccc(Cl)c(Cl)c1
1700 nM | O=C(O)CCC/C=C\CC1=CCC[C@@H]1CNS(=O)(=O)c1ccc(F)cc1
1800 nM | O=C(O)COCCCC[C@H]1[C@H](F)CC[C@@H]1NS(=O)(=O)c1ccc(F)cc1
1800 nM | Cc1ccc(S(=O)(=O)N[C@H]2CCC=C2C/C=C\CCC(=O)O)cc1
650 nM | O=C(O)CC/C=C\C[C@@H]1[C@@H](CNS(=O)(=O)c2ccc(F)cc2)CC[C@@H]1F
250 nM | Cc1ccc(S(=O)(=O)N[C@H]2CCC=C2C/C=C\CCCC(=O)O)cc1

IC50 | Compound
600 nM | O=C(O)CC/C=C\CC1=CCC[C@@H]1CNS(=O)(=O)c1ccc(F)cc1
200 nM | O=C(O)COCCCCC1=CCC[C@@H]1CNS(=O)(=O)c1ccc(F)cc1
1100 nM | O=C(O)CCC/C=C\C[C@H]1[C@H](F)CC[C@@H]1NS(=O)(=O)c1ccccc1
2000 nM | O=C(O)COCCCCC1=CCC[C@@H]1NS(=O)(=O)c1ccc(F)cc1
1900 nM | O=C(O)COCCCCC1=CCC[C@@H]1NS(=O)(=O)c1ccc(Cl)c(Cl)c1
2000 nM | O=C(O)CCC/C=C\C[C@@H]1[C@@H](CNS(=O)(=O)c2ccc(F)cc2)CC[C@H]1F
1900 nM | O=C(O)CC/C=C\CC1=CCC[C@@H]1NS(=O)(=O)c1ccc(Cl)cc1
1900 nM | Cc1ccc(S(=O)(=O)NC[C@H]2CC[C@@H](F)[C@@H]2C/C=C\CCC(=O)O)cc1
4400 nM | O=C(O)CCC/C=C\CC1=CCC[C@@H]1NS(=O)(=O)c1ccc(F)cc1
1300 nM | O=C(O)CC/C=C\CC1=CCC[C@@H]1NS(=O)(=O)c1ccc(F)cc1
2000 nM | O=C(O)CC/C=C\C[C@H]1[C@H](F)CC[C@@H]1NS(=O)(=O)c1ccccc1
650 nM | O=C(O)COCCCC[C@@H]1[C@@H](CNS(=O)(=O)c2ccc(F)cc2)CC[C@H]1F
1800 nM | O=C(O)CC/C=C\C[C@@H]1[C@@H](CNS(=O)(=O)c2ccc(Cl)cc2)CC[C@H]1F
1900 nM | O=C(O)COCCCCC1=CCC[C@@H]1NS(=O)(=O)c1ccccc1[N+](=O)[O-]
2000 nM | O=C(O)CCC/C=C\CC1=CCC[C@@H]1NS(=O)(=O)c1cccc2cccnc12
1800 nM | O=C(O)COCCCC[C@H]1[C@H](F)CC[C@@H]1NS(=O)(=O)c1ccc(F)cc1F
1900 nM | Cc1ccc(S(=O)(=O)N[C@H]2CCC=C2CCCCOCC(=O)O)cc1
200 nM | O=C(O)CCC/C=C\C[C@H]1[C@H](F)CC[C@@H]1NS(=O)(=O)c1ccc2ccccc2c1
1800 nM | Cc1ccc(S(=O)(=O)N[C@H]2CC[C@@H](F)[C@@H]2CCCCOCC(=O)O)cc1
210 nM | O=C(O)CC/C=C\C[C@H]1[C@H](F)CC[C@@H]1NS(=O)(=O)c1ccc(Cl)cc1
680 nM | O=C(O)CCC/C=C\CC1=CCC[C@@H]1NS(=O)(=O)c1ccccc1[N+](=O)[O-]
2300 nM | O=C(O)CCC/C=C\CC1=CCC[C@@H]1NS(=O)(=O)c1ccccc1
750 nM | O=C(O)CC/C=C\C[C@H]1[C@H](F)CC[C@@H]1NS(=O)(=O)c1ccc(F)cc1
6000 nM | O=C(O)CCCCCC[C@@H]1[C@@H](CNS(=O)(=O)c2ccc(F)cc2)CC[C@H]1F
1800 nM | O=C(O)COCCCCC1=CCC[C@@H]1NS(=O)(=O)c1ccc(F)cc1F
